The text below walks through data of patent US5441875A, “Urea transporter polypeptide” (Brigham and Women's Hospital, priority 1993, dated 1995).

Read-outs that look alike come from different tables or passages of the source.

For data set [1], the target named is T1, urea transporter polypeptide (Oryctolagus cuniculus, UniProt Q28614).
T1 sequence (Q28614 1-397): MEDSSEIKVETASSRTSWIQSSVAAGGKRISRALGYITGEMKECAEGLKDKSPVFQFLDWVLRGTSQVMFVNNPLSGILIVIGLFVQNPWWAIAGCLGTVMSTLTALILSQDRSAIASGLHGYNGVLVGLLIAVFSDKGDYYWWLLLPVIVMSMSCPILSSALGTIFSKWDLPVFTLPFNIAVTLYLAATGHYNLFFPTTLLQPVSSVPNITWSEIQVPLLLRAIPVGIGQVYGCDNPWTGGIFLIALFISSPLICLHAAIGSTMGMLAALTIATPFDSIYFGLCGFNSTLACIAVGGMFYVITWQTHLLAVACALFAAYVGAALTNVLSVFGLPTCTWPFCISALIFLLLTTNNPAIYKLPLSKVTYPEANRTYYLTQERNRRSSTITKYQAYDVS
As to the kind of experiment: cell-based. The conditions noted are these: for inhibition of urea transport by urea analogues: 150 mM analogue; for effect of cAMP analogues on urea transporter-facilitated urea transport: 30 minute preincubation, 1 mM per analogue; for effect on urea uptake of replacing mannitol in the incubation solution: 100 mM replacing mannitol. On the procedure:
(§1) The rabbit kidney medulla mRNA that is size fractionated by the preparative agarose gel electrophoresis was analyzed by oocyte expression assay. Large, fully grown oocytes (stage 5 and 6) with a diameter of 1.2-1.3 mm were hand dissected from ovarian fragments of Xenopus laevis, treated with 2 mg/ml type 1A collagenase to remove follicular cells and incubated in Barth's solution (in mM: 88 NaCl; 0.82 MgSO4; 0.33 Ca (NO3)2; 0.41 CaCl2; 2.4 NaHCO3; 10 HEPES, pH 7.4; 200 mosmol). After 16-24 hours, oocytes were injected with about 50 nl of mRNA or water and incubated in Barth's solution with gentamicin at about 18° C. for another three days after which uptake of ^14 C-urea was measured.
(§2) Unlabelled urea was deionized by passing it through an ion exchange column (AG501-X8 (D), 20-50 Mesh, Bio Rad) immediately before use. The uptake solution consisted of 2 microcuries ^14 C-urea; 1 mM urea; 200 mM mannitol; […]; 1 mM MgCl2; 1 mM CaCl2; 10 mM HEPES; and 5 mM TRIS, unless otherwise specified. In all uptake experiments oocytes were pre-incubated in uptake solution minus urea for one hour. After completion of the uptake, oocytes were washed with ice-cold wash solution (uptake solution without the labelled urea), dissolved in 10% SDS and used for scintillation counting.
Urea transport in the mammalian kidney is generally considered to be passive, although there is some evidence for active ion coupled transport. In studies addressing ion dependencies, urea uptake was measured in oocytes injected with urea transporter cRNA, as described above in Example 1. In the incubation solution, however, mannitol was replaced by NaCl (100 mM), choline chloride (100 mM) or sodium acetate (100 mM).
To study the uptake inhibition by phloretin, phloretin (Sigma) was dissolved in ethanol at 0.5M and added to the uptake solution to give the desired final concentration of 0.35 mM and 0.70 mM. The concentration of ethanol was no more than 0.1%. Ethanol at the same concentration is added to uptake solution without phloretin. Following 15 min pre-incubation in phloretin, ^14 C-urea was added and urea flux was then measured during 90 seconds.
For inhibition studies using urea analogues, all analogues were deionized as described in Example 1 immediately before use. […] Chou and Knepper, 257 Am. J. Physiol. F359-365 (1989).
It is possible that facilitation of urea transport by vasopressin is the result of direct phosphorylation of the transporter or of recruitment of functional transporters from intracellular vesicle pools.

In data set [2] the test system is urea transport in UT1 cRNA-injected oocytes. As to the kind of experiment: 14C-urea uptake into Xenopus oocytes injected with UT1 cRNA. Type of data set: cell-based, Xenopus laevis. On the procedure:
as §1, §2

The test system of data set [3] is urea transport induced by rabbit kidney medulla poly(A)+ RNA. As to the kind of experiment: 14C-urea uptake into Xenopus oocytes injected with poly(A)+ RNA from rabbit kidney medulla. The data set is classed as cell-based. The conditions noted are these: phloretin 0.25 mM, 14C-urea 50 mM. On the procedure: Messenger RNA, fractionated as above, was collected in 0.6 ml fractions. In preliminary experiments, uptake of ^14 C-labelled urea (50 mM) was measured three days after injection at 5, 30 and 60 minute intervals. […] Phloretin at 0.25 mM inhibited the 30 minute uptake of urea by approximately 50%.

For data set [4], the system named is water-injected control oocytes. The conditions noted are these: not told, 1000 µM. On the procedure: as §1, §2
The target of data set [5] is T1, urea transporter polypeptide. As to the kind of experiment: Two-microelectrode voltage clamp on urea transporter cRNA-injected oocytes. Type of data set: cell-based, rabbit. The following applies: urea 1 and 100 mM; holding potential -60 mV. As to the method: Electrophysiological studies are in agreement with this finding. Electrophysiological measurements were made on oocytes 3-4 days after injection with urea transporter cRNA-injected oocytes using conventional two-microelectrode voltage clamp methods (Axoclamp-2A, Axon Instruments). Membrane current was measured in a standard bath of 96 mM NaCl; 2 mM KCl; 1.8 mM CaCl2; 1.0 mM MgCl2; and 5 mM HEPES, pH 7.4, at a holding potential of -60 mV.

Setting [6] is: read-out: inhibition of urea uptake.

Consider `CN(C)C(N)=O` [1,1-dimethylurea], for which the “inhibition of urea transport by urea analogues” value (from here on “inhibition … by urea analogues”) in data set [1] (14C-urea 1 mM) is “no significant effect”.

Consider `CNC(=O)NC` [1,3 dimethylurea, 1,3-dimethylurea], for which the “inhibition … by urea analogues” value in data set [1] (14C-urea 1 mM) turned out to be 65%.

On to `Nc1ncnc2c1nc(Br)n2[C@@H]1O[C@@H]2COP(=O)(O)O[C@H]2[C@H]1O` [8-bromo-cAMP], for which the “effect of cAMP analogues on urea transporter-facilitated urea transport” value (“effect of cAMP analogues” for short) in data set [1] was “no effect”.

For `CNC(N)=O` [N-methylurea], in data set [1] (14C-urea 1 mM), the “inhibition … by urea analogues” value came out at 38%.

For the molecule `[Cl-].[Na+]` [NaCl], in data set [1], the “effect on urea uptake of replacing mannitol in the incubation solution” value (shortened to “effect on urea uptake”) was “did not alter urea uptake”.

`Nc1ncnc2c1ncn2C1OC2COP(O)(=S)OC2C1O` (stereo not shown) [Sp-cAMPS]: the “effect of cAMP analogues” value in data set [1] is given as “no effect”.

Regarding `NC(N)=S` [Thiourea, thiourea], in data set [1] (14C-urea 1 mM), the “inhibition … by urea analogues” value was found to be 38%.

Take `CC(N)=O` [acetamide]: in data set [1] (14C-urea 1 mM), the “inhibition … by urea analogues” value was “no significant effect”.

Regarding `C[N+](C)(C)CCO.[Cl-]` [choline chloride], the “effect on urea uptake” value in data set [1] is on record as “no effect”.

Turning to `CCCC(=O)Nc1ncnc2c1ncn2[C@@H]1O[C@@H]2COP(=O)(O)O[C@H]2[C@H]1OC(=O)CCC` [dibutyryl cyclic-AMP], the “effect of cAMP analogues” value in data set [1] is “no effect”.

The term inhibition denotes how much of the control response was suppressed. For `O=C(CCc1ccc(O)cc1)c1c(O)cc(O)cc1O` [phloretin], in data set [2], the “phloretin sensitivity of UT1-induced urea transport” value is “not phloretin-sensitive”. Besides, the “inhibition of the 30 minute uptake of urea” value in data set [3] is recorded as “approximately 50%”. Besides, in data set [1] (setting [6]), the inhibition at 350 µM turned out to be 48% and the inhibition at 700 µM amounted to 78%. In data set [1] (read-out: inhibition of urea uptake (phloretin-sensitivity of clone pool)), the inhibition at 350 µM was around 50%.

For `CC(=O)O` [sodium acetate], the “effect on urea uptake” value in data set [1] is given as “no effect”.

As to `NC(N)=O` [urea], in data set [4], the “permeability of water-injected control oocytes for urea” value was 1.9 ×10⁻⁶ cm/s. For the same molecule, the “membrane current evoked by bath applied urea” value in data set [5] is recorded as “did not evoke a significant current”. The “maximum uptake of 14C-urea” value in data set [1] (14C-urea 1 mM, between 10 and 30 minutes) was “approximately 250 pmoles/oocyte”. In addition, in data set [1] (concentration range between 1 and 200 mM urea), the “saturation of urea transporter polypeptide-mediated urea transport” value is recorded as “no saturation”. Moreover, the “urea permeability of urea transporter-injected oocytes” value in data set [1] (not told, 1000 µM) turned out to be 45 ×10⁻⁶ cm/s.

B1: urea transporter: 397-amino acid residue membrane glycoprotein from rabbit kidney medulla (SEQ ID NO.: 2), expressed from UT2 cRNA (protein)
chain: T1 sequence (Q28614 1-397)
modifications: glycosylated
Take B1: in data set [1] (versus water-injected control oocytes), the “increase of the permeability of oocytes to urea” value was 23 fold.
